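Dose response: 5 concentrations. Exposure: 48 h. Format: 96-well plates. Endpoint: linear interpolation; highest concentration if not reached. Abbreviation: GI50, concentration required for 50% inhibition of growth.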 Active and inactive are the calls of the source. Cut-off read from the data, not from the text of the source: active = GI50 up to about 1.1 µM and inactive = higher.
How the values were obtained:
Assay in all cases: growth of human tumour cells (NCI), 48 h
PC-3 = test system: PC-3
NCI-H226 = test system: NCI-H226
NCI-H522 = test system: NCI-H522
Hs-578T = test system: Hs-578T
MDA-N = test system: MDA-N
786-0 = test system: 786-0
EKVX = test system: EKVX
HOP-62 = test system: HOP-62
T47D = test system: T47D
MDA-MB-435 = test system: MDA-MB-435
SR = test system: SR
A498 = test system: A498
HL-60 = test system: HL-60
COLO 205 = test system: COLO 205
DU-145 = test system: DU-145
BT-549 = test system: BT-549
MDA-MB-231 = test system: MDA-MB-231
DLD-1 = test system: DLD-1
M19-MEL = test system: M19-MEL
KM-20L2 = test system: KM-20L2

## O=C(O)/C(Cc1ccnc2ccccc12)=N\O
PC-3
  GI50: > 100 µM (inactive)
NCI-H226
  GI50: > 100 µM (inactive)
NCI-H522
  GI50: > 100 µM (inactive)
Hs-578T
  GI50: > 100 µM (inactive)
MDA-N
  GI50: > 100 µM (inactive)
786-0
  GI50: > 100 µM (inactive)
EKVX
  GI50: > 100 µM (inactive)
HOP-62
  GI50: > 100 µM (inactive)
T47D
  GI50: > 100 µM (inactive)
MDA-MB-435
  GI50: > 100 µM (inactive)
SR
  GI50: > 100 µM (inactive)
A498
  GI50: > 100 µM (inactive)
HL-60
  GI50: > 100 µM (inactive)
COLO 205
  GI50: > 100 µM (inactive)
DU-145
  GI50: > 100 µM (inactive)
BT-549
  GI50: > 100 µM (inactive)
MDA-MB-231
  GI50: > 100 µM (inactive)

## COc1cc(CCCOC2OC(COC3OCC(O)C(O)C3O)C(O)C(O)C2O)cc2cc(-c3ccc4c(c3)OCO4)oc12 (configuration not stated)
DLD-1
  GI50: > 175 µM (inactive)
NCI-H226
  GI50: > 175 µM (inactive)
NCI-H522
  GI50: > 175 µM (inactive)
M19-MEL
  GI50: > 175 µM (inactive)
EKVX
  GI50: > 175 µM (inactive)
HOP-62
  GI50: > 175 µM (inactive)
A498
  GI50: > 27.7 µM (inactive)
KM-20L2
  GI50: > 175 µM (inactive)
HL-60
  GI50: > 175 µM (inactive)
COLO 205
  GI50: > 175 µM (inactive)

## Oc1c(CNCCCN2CCCC2)cc(Cl)c2cccnc12
DLD-1
  GI50: 3.22 µM (inactive)
NCI-H226
  GI50: 3.15 µM (inactive)
NCI-H522
  GI50: 4.22 µM (inactive)
M19-MEL
  GI50: 2.52 µM (inactive)
EKVX
  GI50: 1.75 µM (inactive)
HOP-62
  GI50: 2.66 µM (inactive)
A498
  GI50: 15 µM (inactive)
KM-20L2
  GI50: 3.78 µM (inactive)
HL-60
  GI50: 0.364 µM (active)
COLO 205
  GI50: 3.79 µM (inactive)

## Cc1ccc2cc3cccc(C(=O)NCCN(C)C)c3nc2c1
DLD-1
  GI50: 0.935 µM (active)
NCI-H226
  GI50: 0.927 µM (active)
M19-MEL
  GI50: 0.977 µM (active)
EKVX
  GI50: 1.14 µM (inactive)
HOP-62
  GI50: 0.923 µM (active)
A498
  GI50: 0.419 µM (active)
KM-20L2
  GI50: 0.733 µM (active)
HL-60
  GI50: 0.565 µM (active)
COLO 205
  GI50: 0.483 µM (active)

## CC(=O)OC1CC2(O)C(CCC3(C)C(c4ccc(=O)oc4)CCC32O)C2(C)C1=CC(O)C1OC12 (configuration not stated)
DLD-1
  GI50: 0.0506 µM (active)
NCI-H226
  GI50: 0.115 µM (active)
NCI-H522
  GI50: 0.025 µM (active)
M19-MEL
  GI50: 0.0502 µM (active)
EKVX
  GI50: 0.042 µM (active)
HOP-62
  GI50: 0.05 µM (active)
A498
  GI50: 0.113 µM (active)
KM-20L2
  GI50: 0.067 µM (active)
HL-60
  GI50: 0.0575 µM (active)
COLO 205
  GI50: 0.0726 µM (active)

## COc1nc2cccc(C(O)c3ccccc3)c2nc1-c1ccccc1 (configuration not stated)
PC-3
  GI50: 4.46 µM (inactive)
NCI-H226
  GI50: 3.8 µM (inactive)
NCI-H522
  GI50: 8.95 µM (inactive)
Hs-578T
  GI50: 2.28 µM (inactive)
MDA-N
  GI50: 1.55 µM (inactive)
EKVX
  GI50: 4.08 µM (inactive)
HOP-62
  GI50: 3.78 µM (inactive)
T47D
  GI50: 8.57 µM (inactive)
MDA-MB-435
  GI50: 1.78 µM (inactive)
SR
  GI50: 1.75 µM (inactive)
A498
  GI50: 2.81 µM (inactive)
HL-60
  GI50: 3.18 µM (inactive)
COLO 205
  GI50: 4.68 µM (inactive)
DU-145
  GI50: 5.93 µM (inactive)
BT-549
  GI50: 13.9 µM (inactive)
MDA-MB-231
  GI50: 8.41 µM (inactive)

## Cc1ccc(S(=O)(=O)N(CC(=O)O)c2ccccc2)cc1
DLD-1
  GI50: > 100 µM (inactive)
NCI-H522
  GI50: > 100 µM (inactive)
786-0
  GI50: > 100 µM (inactive)
M19-MEL
  GI50: > 100 µM (inactive)
EKVX
  GI50: > 100 µM (inactive)
A498
  GI50: > 100 µM (inactive)
KM-20L2
  GI50: > 100 µM (inactive)
HL-60
  GI50: > 100 µM (inactive)
COLO 205
  GI50: > 100 µM (inactive)

## COC(=O)c1ccccc1/N=C(/NC1CCCCCC1)NS(=O)(=O)c1ccc(C)cc1
PC-3
  GI50: > 100 µM (inactive)
NCI-H226
  GI50: > 100 µM (inactive)
NCI-H522
  GI50: 77.4 µM (inactive)
Hs-578T
  GI50: > 100 µM (inactive)
MDA-N
  GI50: > 100 µM (inactive)
786-0
  GI50: > 100 µM (inactive)
EKVX
  GI50: > 100 µM (inactive)
HOP-62
  GI50: 99.3 µM (inactive)
T47D
  GI50: > 100 µM (inactive)
MDA-MB-435
  GI50: > 100 µM (inactive)
SR
  GI50: > 100 µM (inactive)
A498
  GI50: > 100 µM (inactive)
HL-60
  GI50: 96.2 µM (inactive)
COLO 205
  GI50: > 100 µM (inactive)
DU-145
  GI50: 58.6 µM (inactive)
BT-549
  GI50: > 100 µM (inactive)
MDA-MB-231
  GI50: 76.9 µM (inactive)

## COc1cccc(C2C(C(=O)O)=C(CO)Oc3cc4c(cc32)OCO4)c1OC (configuration not stated)
DLD-1
  GI50: > 100 µM (inactive)
NCI-H226
  GI50: > 100 µM (inactive)
NCI-H522
  GI50: > 100 µM (inactive)
M19-MEL
  GI50: > 100 µM (inactive)
EKVX
  GI50: > 100 µM (inactive)
A498
  GI50: > 100 µM (inactive)
KM-20L2
  GI50: > 100 µM (inactive)
HL-60
  GI50: > 100 µM (inactive)
COLO 205
  GI50: > 100 µM (inactive)
